From the NIST ThermoML archive (doi:10.1016/j.jct.2005.06.011)

Legend:
[1] = refractive index (Na D-line) (dimensionless); xn = mol fraction of the nth substance listed; conditions: 101 kPa, Liquid
[2] = xn = mol fraction of the nth substance listed; conditions: 101 kPa, Liquid; for speed of sound: Linear variable-path acoustic interferometer

CC1CCCCC1 [methylcyclohexane] + CCCCO
Conditions | mass density, 298.15 K [kg/m3] | mass density, 303.15 K [kg/m3] | mass density, 308.15 K [kg/m3] | refractive index, 298.15 K | refractive index, 303.15 K | refractive index, 308.15 K | speed of sound, 298.15 K [m/s] | viscosity, 298.15 K [mPa·s] | viscosity, 303.15 K [mPa·s] | viscosity, 308.15 K [mPa·s]
[1], x1 = 0.1021 | – | – | – | 1.4036 | 1.4015 | 1.3994 | – | – | – | –
[1], x1 = 0.2041 | – | – | – | 1.4034 | 1.4008 | 1.3982 | – | – | – | –
[1], x1 = 0.3027 | – | – | – | 1.406 | 1.4035 | 1.4009 | – | – | – | –
[1], x1 = 0.4013 | – | – | – | 1.4087 | 1.4062 | 1.4037 | – | – | – | –
[1], x1 = 0.5039 | – | – | – | 1.4105 | 1.4081 | 1.4057 | – | – | – | –
[1], x1 = 0.6066 | – | – | – | 1.4121 | 1.4099 | 1.4076 | – | – | – | –
[1], x1 = 0.7014 | – | – | – | 1.4147 | 1.4122 | 1.4097 | – | – | – | –
[1], x1 = 0.7963 | – | – | – | 1.4169 | 1.4143 | 1.4117 | – | – | – | –
[1], x1 = 0.8981 | – | – | – | 1.4193 | 1.4167 | 1.414 | – | – | – | –
[1], x1 = 1 | – | – | – | 1.4217 | 1.4192 | 1.4163 | – | – | – | –
[2], x1 = 0.1021 | 801.93 | 797.96 | 793.95 | – | – | – | 1263 | 2.396 | 2.122 | 1.848
[2], x1 = 0.2041 | 795.62 | 791.47 | 787.32 | – | – | – | 1258 | 2.205 | 1.957 | 1.709
[2], x1 = 0.3027 | 790.23 | 786.03 | 781.87 | – | – | – | 1253 | 2.021 | 1.797 | 1.573
[2], x1 = 0.4013 | 785.45 | 781.24 | 776.99 | – | – | – | 1248 | 1.834 | 1.636 | 1.438
[2], x1 = 0.5039 | 780.86 | 776.57 | 772.29 | – | – | – | 1243 | 1.639 | 1.468 | 1.296
[2], x1 = 0.6066 | 776.73 | 772.4 | 768.04 | – | – | – | 1238 | 1.443 | 1.288 | 1.153
[2], x1 = 0.7014 | 773.21 | 768.83 | 764.46 | – | – | – | 1233 | 1.262 | 1.141 | 1.021
[2], x1 = 0.7963 | 770.14 | 765.74 | 761.34 | – | – | – | 1227 | 1.08 | 0.9828 | 0.8858
[2], x1 = 0.8981 | 767.52 | 763.15 | 758.77 | – | – | – | 1222 | 0.8808 | 0.8104 | 0.74
[2], x1 = 1 | 764.99 | 760.66 | 756.3 | – | – | – | 1217 | 0.6757 | 0.631 | 0.5902

CC1CCCCC1 [methylcyclohexane] + CCCO
Conditions | mass density, 298.15 K [kg/m3] | mass density, 303.15 K [kg/m3] | mass density, 308.15 K [kg/m3] | refractive index, 298.15 K | refractive index, 303.15 K | refractive index, 308.15 K | speed of sound, 298.15 K [m/s] | viscosity, 298.15 K [mPa·s] | viscosity, 303.15 K [mPa·s] | viscosity, 308.15 K [mPa·s]
[1], x1 = 0.1008 | – | – | – | 1.3888 | 1.3865 | 1.3841 | – | – | – | –
[1], x1 = 0.2027 | – | – | – | 1.3934 | 1.391 | 1.3886 | – | – | – | –
[1], x1 = 0.3047 | – | – | – | 1.3979 | 1.3955 | 1.3932 | – | – | – | –
[1], x1 = 0.4039 | – | – | – | 1.4016 | 1.3994 | 1.3971 | – | – | – | –
[1], x1 = 0.5031 | – | – | – | 1.4053 | 1.4032 | 1.4011 | – | – | – | –
[1], x1 = 0.6008 | – | – | – | 1.409 | 1.4066 | 1.4043 | – | – | – | –
[1], x1 = 0.6985 | – | – | – | 1.4127 | 1.4101 | 1.4075 | – | – | – | –
[1], x1 = 0.799 | – | – | – | 1.4159 | 1.4133 | 1.4106 | – | – | – | –
[1], x1 = 0.8995 | – | – | – | 1.4191 | 1.4164 | 1.4137 | – | – | – | –
[1], x1 = 1 | – | – | – | 1.4217 | 1.4192 | 1.4163 | – | – | – | –
[2], x1 = 0.1008 | 801.22 | 796.96 | 792.71 | – | – | – | 1207 | 1.729 | 1.536 | 1.343
[2], x1 = 0.2027 | 794.2 | 789.87 | 785.57 | – | – | – | 1208 | 1.471 | 1.317 | 1.162
[2], x1 = 0.3047 | 788.08 | 783.7 | 779.32 | – | – | – | 1209 | 1.26 | 1.136 | 1.013
[2], x1 = 0.4039 | 782.97 | 778.55 | 774.13 | – | – | – | 1210 | 1.102 | 0.9975 | 0.8926
[2], x1 = 0.5031 | 778.56 | 774.16 | 769.74 | – | – | – | 1212 | 0.9688 | 0.8863 | 0.8037
[2], x1 = 0.6008 | 774.91 | 770.45 | 765.97 | – | – | – | 1213 | 0.8839 | 0.813 | 0.742
[2], x1 = 0.6985 | 771.66 | 767.2 | 762.69 | – | – | – | 1214 | 0.7998 | 0.7403 | 0.6808
[2], x1 = 0.799 | 768.83 | 764.32 | 759.8 | – | – | – | 1215 | 0.7511 | 0.6984 | 0.6457
[2], x1 = 0.8995 | 766.39 | 761.95 | 757.5 | – | – | – | 1216 | 0.7028 | 0.6568 | 0.6107
[2], x1 = 1 | 764.99 | 760.66 | 756.3 | – | – | – | 1217 | 0.6757 | 0.631 | 0.5902
